Measured values taken from patent US11795189B2, “Formulation and method for spray-drying D-tagatose” (University of Kentucky Research Foundation, priority 2020, dated 2023).

Assays:
[1] = D-tagatose fully dissolved in water:organic dual solvent systems; type: physicochemical
Source text: The solvent used in the spray-drying feed formulation may be substantially any solvent suitable for the intended purpose including, for example, an appropriate co-solvent system. That co-solvent system may include acetone and water. The acetone and water may be provided at a ratio of between 1:1 and 4.6:1 (v/v %). In other embodiments, the co-solvent system may include methanol and water, propanol and water or ethanol and water.

[2] = D-tagatose dissolved in tri-solvent systems; type: physicochemical
Source text: Tri-solvent systems may also be used. One example of a tri-solvent system is ethanol, methanol and water.
Table 2: Summarizes tri-solvent systems that have shown to dissolve D-tagatose.

[3] = Glass transition temperature (Tg) by DSC; type: physicochemical
Protocol: Glass transition temperatures were determined using DSC for physical mixtures of D-tagatose and respective excipients subjected to melt quenching. Samples were prepared by geometrically mixing D-tagatose and excipients at a 1:1 (w/w) ratio. Once mixed, the samples were then rigorously ground using a mortar and pestle before being hermetically sealed within a T-Zero pan. Once sealed, the samples were transferred to a Q2000 DSC (TA Instruments, New Castle, DE). All samples were run with the DSC operating in the modulation mode with a “pinhole” lid to better capture the sample's behavior instead of any residual vapors. The modulating method was first equilibrated at −20° C. before heating at 10° C./min to 140° C. […] Once −10° C. was reached, samples were set to modulate at ±0.5° C. every 60 s immediately and held for 5 min before ramping 1° C./min back to 140° C. Reported Tg values were averages of triplicate samples, each determined from the midpoint of the glass transition step change from the resultant reversible heat flow curves vs. temperature thermograms. All DSC mass samples were between 1 and 5 mg.

[4] = crystalline D-tagatose, at 20° C.; cited from earlier work
[5] = oral ingestion; cited from earlier work
[6] = tested on: type 2 diabetes; conditions: cited from earlier work
[7] = granted 2004; such low toxicity that no daily intake monitoring is needed; cited from earlier work

Compound: O=C(CO)[C@@H](O)[C@@H](O)[C@H](O)CO [D-tagatose, D-(−)-tagatose]
- amount of D-tagatose dissolved ([1]; 2-Propanol:Water 5 mL:3.6 mL): ~1 gram
- w % Tagatose (fully dissolved) ([1]; 2-Propanol:water, 45.6 w % water, 43.3 w % organic): 11.1 w %
- amount of D-tagatose dissolved ([1]; Acetone:Water 5 mL:4.1 mL): ~1 gram
- w % Tagatose (fully dissolved) ([1]; Acetone:water, 46.0 w % water, 42.7 w % organic): 11.3 w %
- amount of D-tagatose dissolved ([1]; Ethanol:Water 5 mL:4.2 mL): ~1 gram
- w % Tagatose (fully dissolved) ([1]; Ethanol:water, 45.9 w % water, 42.5 w % organic): 11.6 w %
- amount of D-tagatose dissolved ([1]; Methanol:Water 5 mL:3.1 mL): ~1 gram
- w % Tagatose (fully dissolved) ([1]; Methanol:water, 46.0 w % water, 42.7 w % organic): 11.2 w %
- amount of D-tagatose dissolved ([2]; 2-Propanol:Acetone:Water 1 mL:5 mL:3.8 mL, sonicate while adding water): ~1 gram
- amount of D-tagatose dissolved ([2]; 2-Propanol:Acetone:Water 5 mL:1 mL:3.6 mL, sonicate while adding water): ~1 gram
- amount of D-tagatose dissolved ([2]; 2-Propanol:Ethanol:Water 1 mL:5 mL:4.2 mL, sonicate while adding water): ~1 gram
- amount of D-tagatose dissolved ([2]; 2-Propanol:Ethanol:Water 5 mL:1 mL:4.6 mL, sonicate while adding water): ~1 gram
- w % Tagatose (dissolved) ([2]; Ethanol 1 mL + 5 mL methanol + water, 37.324 w % water, 51.789 w % organic): 10.887 w %
- w % Tagatose (dissolved) ([2]; Ethanol 2 mL + 5 mL methanol + water, 36.185 w % water, 53.816 w % organic): 9.999 w %
- w % Tagatose (dissolved) ([2]; Ethanol 3 mL + 5 mL methanol + water, 32.436 w % water, 58.272 w % organic): 9.292 w %
- w % Tagatose (dissolved) ([2]; Methanol 1 mL + 5 mL ethanol + water, 39.808 w % water, 49.3620231 w % organic): 10.830 w %
- w % Tagatose (dissolved) ([2]; Methanol 2 mL + 5 mL ethanol + water, 37.459 w % water, 52.8123019 w % organic): 9.729 w %
- w % Tagatose (dissolved) ([2]; Methanol 3 mL + 5 mL ethanol + water, 35.506 w % water, 55.7893055 w % organic): 8.704 w %
- amount of D-tagatose dissolved ([2]; Methanol:Ethanol:Water 5 mL:1 mL:3.4 mL): ~1 gram
- dry Tg (glass transition temperature) [3]: 18.92 °C
- aqueous solubility [4]: 160 g/100 mL
- fraction of orally ingested dose fully metabolized [5]: 20%
- effect on HbA1c [6]: lower
- effect on LDL [6]: lower
- effect on fasting blood glucose levels [6]: lower
- effect on total cholesterol [6]: lower
- safe daily intake [7]: not specified
